Test results: patent publication US20120058200A1, “PROCESS FOR THE PREPARATION OF LANTHANUM CARBONATE DIHYDRATE” (Natco Pharma Limited, priority 2009, published 2012)

Experiments:
[1] = Phosphate binding studies of various lanthanum carbonate hydrates; settings: for % Phosphate removed: two-fold molar excess of lanthanum carbonate hydrate over phosphate; for Peak phosphate binding: in about 7 times (so in the source)
Procedure: To study the phosphate binding activity of lanthanum carbonate dihdyrate, other hydrates of lanthanum carbonate (monohydrate, tetrahydrate and hexahydrate) were prepared. • a) A stock solution of standard phosphate was prepared by dissolving 13.75 g of Na2HPO4 in 1 L deionised water after adjusting the pH to 3.0 with […]. • b) Above stock solution (5 ml) was diluted with 90 ml water adjusted the pH to 3.0 with conc. HCl and made up to 100 ml with water. • c) A two-fold molar excess of Lanthanum carbonate hydrate over phosphate was weighed accurately according to the molecular weight and added to solution b). • d) Sampling was carried out at different time intervals 1, 3, 5, 7, and 10 min. […] Peak phosphate binding exceeding 99% is achieved with the dihydrate in about 7 times whereas only 81% is achieved with the tetrahydrate.

[2] = room temperature

| SMILES | % Phosphate removed ([1]; 1 min, pH 3.0) [%] | % Phosphate removed ([1]; 3 min, pH 3.0) [%] | % Phosphate removed ([1]; 5 min, pH 3.0) [%] | % Phosphate removed ([1]; 7 min, pH 3.0) [%] | % Phosphate removed ([1]; 10 min, pH 3.0) [%] | Stability [2] | Phosphate binding speed ([1]; at all points (1-10 min), pH 3.0) | Peak phosphate binding ([1]; pH 3.0) | Performance in phosphate binding studies ([1]; over standard lanthanum carbonate tetrahydrate) |
| --- | --- | --- | --- | --- | --- | --- | --- | --- | --- |
| O.O.O.O.O.O.O=C([O-])[O-].O=C([O-])[O-].O=C([O-])[O-].[La+3].[La+3] [Hexahydrate] | 57.10 | 60.10 | 79.73 | 76.12 | 81.15 |  |  |  |  |
| O.O=C([O-])[O-].O=C([O-])[O-].O=C([O-])[O-].[La+3].[La+3] [Monohydrate] | 82.73 | 90.05 | 87.10 | 91.72 | 98.30 |  |  |  |  |
| O.O.O=C([O-])[O-].O=C([O-])[O-].O=C([O-])[O-].[La+3].[La+3] [Dihydrate, lanthanum carbonate dihydrate] | 94.00 | 93.00 | 93.00 | 99.45 | 99.17 | stable | relatively very fast | exceeding 99% | improved performance |
| O.O.O.O.O=C([O-])[O-].O=C([O-])[O-].O=C([O-])[O-].[La+3].[La+3] [Tetrahydrate, lanthanum carbonate tetrahydrate] | 64.05 | 73.64 | 87.20 | 81.21 | 82.80 |  |  | 81% |  |
